The source of these data is patent US20090082304A1, “Methods of Treating Hematological Malignancies with Nucleoside Analog Drugs” (NORTHWESTERN UNIVERSITY, priority 2004, published 2009).

One series concerns MKK3/6. Description: Immunoblot of phospho-MKK3/6 in MM.1 S cells. It is filed as cell-based. Particulars: 10 μM. As for the experimental part:
(§1) 5×10^6 were cells treated with 10 μM 8-NH2-Ado for the indicated times and harvested. Cell pellets were washed with cold phosphate-buffered saline (PBS; 8.1 g NaCl, 1.14 g Na2HPO4, 0.22 g KCl, and 0.25 g/L KH2PO4) and incubated with lysis buffer (50 mM HEPES, 150 mM NaCl, 1.5 mM MgCl2, 1 mM EDTA pH 8.0, 100 mM NaFI, 10 mM Na Pyrophosphate, 500 μM PMSF, 0.5% Triton X-100, 10% glycerol) at 4° C. for one hour. Lysates were centrifuged at 4° C. for 1 minute at 9000×g, and the supernatants were collected and stored at −20° C. Protein concentration was determined by Bio-Rad protein assay (BioRad Laboratories, Hercules, Calif.). Protein, at a concentration of 30 μg, was mixed with sample buffer (125 mM Tris, pH 6.8, 4% SDS, 20% glycerol, 100 mM Dithiothreitol (DTT), and 0.05% bromophenol blue), and fractionated on a pre-cast 8-16% Tris-Glycine gel (Invitrogen/Novex, Carlsbad, Calif.). Proteins were then transferred to a Polyvinylidene Fluoride (PVDF) membrane (Immobilon-P, Millipore, Bedford, Mass.): Following protein transfer, membranes were blocked with 5% non-fat milk in PBS-T (PBS with 0.1% Tween), incubated with the primary antibody overnight at 4° C. and subsequently with horseradish peroxidase linked secondary antibody (Amersham, Arlington Heights, Ill.). […]
(Immunoblotting shows a protein as a band on a membrane.)

A further series has as its system Akt kinase. Description: Immunoblot of phospho-Akt in MM.1 S cells. It counts as cell-based. Conditions: 10 μM. On the procedure:
5×10^6 were cells treated with 10 μM 8-NH2-Ado for the indicated times and harvested. Cell pellets were washed with cold phosphate-buffered saline (PBS; 8.1 g NaCl, 1.14 g Na2HPO4, 0.22 g KCl, and 0.25 g/L KH2PO4) and incubated with lysis buffer (50 mM HEPES, 150 mM NaCl, 1.5 mM MgCl2, 1 mM EDTA pH 8.0, 100 mM NaFI, 10 mM Na Pyrophosphate, 500 μM PMSF, 0.5% Triton X-100, 10% glycerol) at 4° C. for one hour. Lysates were centrifuged at 4° C. for 1 minute at 9000×g, and the supernatants were collected and stored at −20° C. Protein concentration was determined by Bio-Rad protein assay (BioRad Laboratories, Hercules, Calif.). Protein, at a concentration of 30 μg, was mixed with sample buffer (125 mM Tris, pH 6.8, 4% SDS, 20% glycerol, 100 mM Dithiothreitol (DTT), and 0.05% bromophenol blue), and fractionated on a pre-cast 8-16% Tris-Glycine gel (Invitrogen/Novex, Carlsbad, Calif.). Proteins were then transferred to a Polyvinylidene Fluoride (PVDF) membrane (Immobilon-P, Millipore, Bedford, Mass.): Following protein transfer, membranes were blocked with 5% non-fat milk in PBS-T (PBS with 0.1% Tween), incubated with the primary antibody overnight at 4° C. and subsequently with horseradish peroxidase linked secondary antibody (Amersham, Arlington Heights, Ill.). Blots were developed using ECL Plus Chemiluminescent Western Blotting Detection reagent (Amersham, Arlington Heights, Ill.) and the signal was visualized with X-ray film (Hyperfilm, Amersham, Arlington Heights, Ill.). For reprobing purposes, blots were stripped using Restore Western Blot Stripping Buffer from Pierce Biotechnology (Rockford, Ill.). Phospho-MKK3/6 (Ser189/207), phospho-p38 (Thr180/Tyr182), phospho-ATF-2 (Thr69/71), phospho-c-Raf (Ser259), phospho-MEK1/2 (Ser217/221), total MEK1/2, phospho-ERK1/2 (Thr202/Tyr204), total ERK1/2, phospho-p90RSK (Ser380), total RSK, phospho-PDK1 (Ser241), total PDKI, phospho-PTEN (Ser380), total PTEN, phospho-Akt (Ser473), total Akt, phospho-GSK-3β (Ser9), total GSK-3β, phospho-FKHRLI (Thr32)/-FKHR (Thr24), phospho-FKHR (Ser256) primary antibodies were obtained from Cell Signaling Technology (Beverly, Mass.). Total MKK3, total MKK6, total p38, total ATF-2, total c-Raf, total FKHR, total FKHRLI, phospho-JNK and total JNK were purchased from Santa Cruz Biotechnology (Santa Cruz, Calif.). Caspase 3, caspase 9, and PARP antibodies were obtained from Pharmingen (San Diego, Calif.) and anti-MKP1 from Upstate (Lake Placid, N.Y.). Anti-caspase 8 mouse serum was a generous gift of Dr. Marcus Peter (University of Chicago).
MM.1 S cells were exposed to 10 μM 8-NH2-Ado for 0, 0.5, 1, 2, 4 and 6 hours, after which cells were lysed as previously (Example 2). 30 μg of protein was separated by gel electrophoresis, transferred to PVDF membrane, and probed with phosphorylation-specific antibodies to MKK3/6, p38 MAPK, ATF-2, MEK1/2, ERK1/2, p90RSK, JNK1, PDK1, Akt, FKHRL1 and GSK-3β.
MM. I S cells were treated with 10 μM 8-chloro-adenosine for 0, 0.5, 1, 2, 4 or 6 hours or 10 μM of cytarabine, fludarabine, gemcitabine or 8-amino-adenosine for 4 hours. Cells were lysed as previously described and 30 μg of protein was separated by gel electrophoresis, transferred to PVDF membrane, and probed with phospho-p38 MAPK (Thr180/Tyr182) antibody.
MM.1 S cells were grown in dextrose-free media and treated with 2 μM Antimycin A, 5 mM 2-DOG, and varying concentrations of dextrose for 90 minutes. Cellular ATP levels were determined using triplicate samples in a luciferase based assay and are expressed here as a percentage of untreated control.

The test system of a further series is FKHR. Description: Immunoblot of phospho-FKHR in MM.1 S cells. It is filed as cell-based. Particulars: 10 μM, data not shown. On the procedure:
as §1

Another series has as its system GSK-3β. Description: Immunoblot of phospho-GSK-3β in MM.1 S cells. It is filed as cell-based. Conditions: 10 μM. As for the experimental part: as §1
The next series has as its system PTEN. Description: Immunoblot of PTEN (total and phospho) in MM.1 S cells. It counts as cell-based. Particulars: 10 μM, 0-6 hours. On the procedure:
as §1, with “Calif.).” for “Calif.). Proteins were then transferred to a Polyvinylidene Fluoride (PVDF) membrane (Immobilon-P, Millipore, Bedford, Mass.): Following protein transfer, membranes were blocked with 5% non-fat milk in PBS-T (PBS with 0.1% Tween), incubated with the primary antibody overnight at 4° C. and subsequently with horseradish peroxidase linked secondary antibody (Amersham, Arlington Heights, Ill.).”
In addition, the effect of 8-NH2-Ado treatment on PTEN, which encodes a key phosphatase involved in the negative regulation of the PI3K/Akt signaling pathway was assessed (FIG. 5B). […]

The next series concerns endogenous ATP. Description: Endogenous ATP pools. It is filed as cell-based. As for the experimental part: MM.IS cells were grown in dextrose-free RPMI-1640 media (Invitrogen, Baltimore, Md.) supplemented with 10% fetal bovine serum, 2 mM glutamine, 100 units/ml penicillin, 100 μg/ml streptomycin and 2.5 μg/ml fungizone. Cellular ATP levels were manipulated by the addition of either antimycin (2 μM, a mitochondrial inhibitor) or 2-deoxy-D-glucose (2-DOG, 5 mM, an inhibitor of glycolysis) from Sigma (St. Louis, Mo.) with and without varying concentrations of dextrose. Six different metabolic conditions were examined: 1) antimycin without dextrose, 2) antimycin+0.25 mM dextrose, 3) antimycin+1 mM dextrose, 4) antimycin+10 mM dextrose, 5) 2-DOG without dextrose, 6) 2-DOG+10 mM dextrose. Control cells were not subjected to ATP depletion; 10 mM dextrose was added to dextrose-free RMPI-1640. Endogenous ATP was measured in a luciferase-based assay using the ATP Determination Kit from Molecular Probes (Eugene, Oreg.) and the levels corresponding to each treatment were normalized to untreated controls (20).

Another series has as its system MM cells. Conditions: cited from earlier work.

As to `Nc1ncnc2c1nc(N)n2[C@@H]1O[C@H](CO)[C@@H](O)[C@H]1O` [8-NH2-Ado, 8-amino-adenosine], the figures for the “Phosphorylated MKK3/6 protein levels” value with MKK3/6 (by 2 hours) and with MKK3/6 (by 6 hours) were “decrease significantly” and “negligible”, respectively. Further, the “phosphorylation of Akt” value in the series on Akt kinase (4 hours, data not shown) is on record as “dramatic loss of phosphorylation”. Further, the Phospho-Akt levels entry is on record as “decrease significantly” in the series on Akt kinase (by 2 hours) and “decline further to negligible levels” in the series with Akt kinase (eventually (after 2 hours)). Also, the FKHR phosphorylation entry with FKHR is reported as “similarly affected”. In addition, the Phospho-OSK-3p levels entry with GSK-3β (by 2 hours) is on record as “diminish”; in the series on GSK-3β (by 6 hours) it was “negligible”. Moreover, the “total and phospho-PTEN levels” value with PTEN is “unaltered”. Further, the “endogenous ATP pools” value in the series on endogenous ATP is on record as “dramatic shifts”. Besides, in the series on MM cells, the cytotoxicity entry is listed as “affected by the cytotoxic ability”.
